Where a name gives a salt, the structure may show the parent alone. Activity calls are given as the source filed them.
Legend:
HEK293 [1] = test: membrane integrity loss in HEK cells – cell-based, fluorescence, cytotoxicity control for IDE activator project, dose response (AID 588440); assay type: functional; conditions: Homo sapiens;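 also: cytotoxicity by LDH release measuring loss of membrane integrity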
Insulin-degrading enzyme [2] = target: T1, Insulin-degrading enzyme (Homo sapiens, UniProt P14735); test: recombinant IDE activation, cell-free – biochemical, fluorescence polarization, counter-screen for IDE activator project, dose response (AID 588681)
T1 sequence (P14735 whole entry): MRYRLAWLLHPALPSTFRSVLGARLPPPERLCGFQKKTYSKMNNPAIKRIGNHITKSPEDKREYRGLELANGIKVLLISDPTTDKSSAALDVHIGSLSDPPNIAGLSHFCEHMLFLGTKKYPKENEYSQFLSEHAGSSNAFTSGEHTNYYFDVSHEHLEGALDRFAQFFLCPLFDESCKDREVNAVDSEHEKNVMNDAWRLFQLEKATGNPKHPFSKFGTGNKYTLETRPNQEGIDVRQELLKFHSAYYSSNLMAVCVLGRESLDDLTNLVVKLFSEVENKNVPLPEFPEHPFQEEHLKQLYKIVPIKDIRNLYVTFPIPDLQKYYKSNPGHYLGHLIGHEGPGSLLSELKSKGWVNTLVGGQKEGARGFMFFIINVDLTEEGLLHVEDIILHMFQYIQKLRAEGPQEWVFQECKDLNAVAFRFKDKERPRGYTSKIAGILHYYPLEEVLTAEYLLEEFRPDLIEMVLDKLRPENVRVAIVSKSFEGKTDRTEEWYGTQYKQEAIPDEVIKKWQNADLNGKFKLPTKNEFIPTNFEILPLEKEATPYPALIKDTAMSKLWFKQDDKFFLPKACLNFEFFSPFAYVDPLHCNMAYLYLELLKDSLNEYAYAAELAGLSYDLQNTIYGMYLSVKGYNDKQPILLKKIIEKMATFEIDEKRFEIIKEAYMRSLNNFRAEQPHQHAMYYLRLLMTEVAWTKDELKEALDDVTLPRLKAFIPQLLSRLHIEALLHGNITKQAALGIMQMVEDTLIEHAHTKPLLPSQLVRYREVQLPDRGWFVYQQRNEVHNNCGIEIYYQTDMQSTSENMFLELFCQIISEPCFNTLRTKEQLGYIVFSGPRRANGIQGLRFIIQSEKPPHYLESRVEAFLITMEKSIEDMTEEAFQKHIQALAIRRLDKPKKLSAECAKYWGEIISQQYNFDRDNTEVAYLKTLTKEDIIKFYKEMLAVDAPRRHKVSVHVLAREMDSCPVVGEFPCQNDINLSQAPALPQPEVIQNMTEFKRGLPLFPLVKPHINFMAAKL

Insulin-degrading enzyme [3] = target: T1, Insulin-degrading enzyme; test: cellular IDE activation of Abeta substrate cleavage – fluorescence polarization, HEK cells, dose response (AID 588439); assay type: functional, cell-based
HEK293 [4] = test: optical interference in Abeta FP readout, dose response, artefact control for IDE activator project, biochemical, fluorescence polarization (AID 588442); assay type: functional, cell-based; conditions: Homo sapiens
[5] = target: 72 kDa type IV collagenase (Homo sapiens, UniProt P08253); test: Dose Response validation of uHTS RPN11 inhibitor hits using a MMP-2 Fluorescence assay.; assay type: functional
72 kDa type IV collagenase, sequence (P08253 whole entry): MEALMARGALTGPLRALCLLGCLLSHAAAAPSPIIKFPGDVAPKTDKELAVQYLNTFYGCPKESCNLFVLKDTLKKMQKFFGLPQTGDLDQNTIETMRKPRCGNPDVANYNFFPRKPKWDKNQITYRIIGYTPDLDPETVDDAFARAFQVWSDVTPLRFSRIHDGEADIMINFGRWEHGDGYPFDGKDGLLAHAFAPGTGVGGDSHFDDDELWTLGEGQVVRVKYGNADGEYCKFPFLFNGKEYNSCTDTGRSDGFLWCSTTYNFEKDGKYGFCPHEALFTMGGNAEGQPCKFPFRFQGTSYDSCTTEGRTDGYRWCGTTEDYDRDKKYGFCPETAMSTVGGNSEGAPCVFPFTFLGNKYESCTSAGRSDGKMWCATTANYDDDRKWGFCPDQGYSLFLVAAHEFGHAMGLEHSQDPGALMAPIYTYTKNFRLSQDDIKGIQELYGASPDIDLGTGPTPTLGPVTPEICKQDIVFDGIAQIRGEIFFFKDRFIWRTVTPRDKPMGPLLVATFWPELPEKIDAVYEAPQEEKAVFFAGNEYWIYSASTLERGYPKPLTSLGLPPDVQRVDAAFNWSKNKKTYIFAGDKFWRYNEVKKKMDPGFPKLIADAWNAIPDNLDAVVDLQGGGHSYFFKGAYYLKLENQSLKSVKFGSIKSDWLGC

[6] = target: 26S proteasome non-ATPase regulatory subunit 14 (Homo sapiens, UniProt O00487); test: inhibition of proteasome subunit RPN11 – biochemical, fluorescence polarization, uHTS hits, confirmation (AID 602368); assay type: functional
26S proteasome non-ATPase regulatory subunit 14, sequence (O00487 whole entry): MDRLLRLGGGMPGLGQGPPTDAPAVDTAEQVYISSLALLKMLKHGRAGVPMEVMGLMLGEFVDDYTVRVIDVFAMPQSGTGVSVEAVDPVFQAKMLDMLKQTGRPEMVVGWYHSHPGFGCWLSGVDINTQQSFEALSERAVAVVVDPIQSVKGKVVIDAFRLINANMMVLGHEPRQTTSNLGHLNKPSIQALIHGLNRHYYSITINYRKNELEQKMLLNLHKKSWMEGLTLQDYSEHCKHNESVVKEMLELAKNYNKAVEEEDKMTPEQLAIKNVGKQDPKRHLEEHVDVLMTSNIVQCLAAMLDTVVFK

SUMO-activating enzyme = SUMO-activating enzyme (Homo sapiens, UniProt Q9UBT2); test: blockers of SAE1/SAE2–UBC9 SUMO transfer – biochemical, HTRF, uHTS, primary screen (AID 2006); assay type: protein-complex assay
SUMO-activating enzyme, sequence (Q9UBE0 whole entry): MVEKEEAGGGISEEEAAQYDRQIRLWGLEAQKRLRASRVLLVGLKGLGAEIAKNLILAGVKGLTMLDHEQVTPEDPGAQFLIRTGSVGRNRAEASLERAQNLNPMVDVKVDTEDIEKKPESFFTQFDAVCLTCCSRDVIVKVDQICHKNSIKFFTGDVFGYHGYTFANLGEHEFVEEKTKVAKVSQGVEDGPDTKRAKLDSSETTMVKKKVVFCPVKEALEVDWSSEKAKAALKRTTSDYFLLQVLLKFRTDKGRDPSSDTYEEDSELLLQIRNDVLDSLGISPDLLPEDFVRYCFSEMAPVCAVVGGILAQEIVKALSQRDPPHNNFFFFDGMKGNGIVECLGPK
SUMO-activating enzyme, sequence (Q9UBT2 whole entry): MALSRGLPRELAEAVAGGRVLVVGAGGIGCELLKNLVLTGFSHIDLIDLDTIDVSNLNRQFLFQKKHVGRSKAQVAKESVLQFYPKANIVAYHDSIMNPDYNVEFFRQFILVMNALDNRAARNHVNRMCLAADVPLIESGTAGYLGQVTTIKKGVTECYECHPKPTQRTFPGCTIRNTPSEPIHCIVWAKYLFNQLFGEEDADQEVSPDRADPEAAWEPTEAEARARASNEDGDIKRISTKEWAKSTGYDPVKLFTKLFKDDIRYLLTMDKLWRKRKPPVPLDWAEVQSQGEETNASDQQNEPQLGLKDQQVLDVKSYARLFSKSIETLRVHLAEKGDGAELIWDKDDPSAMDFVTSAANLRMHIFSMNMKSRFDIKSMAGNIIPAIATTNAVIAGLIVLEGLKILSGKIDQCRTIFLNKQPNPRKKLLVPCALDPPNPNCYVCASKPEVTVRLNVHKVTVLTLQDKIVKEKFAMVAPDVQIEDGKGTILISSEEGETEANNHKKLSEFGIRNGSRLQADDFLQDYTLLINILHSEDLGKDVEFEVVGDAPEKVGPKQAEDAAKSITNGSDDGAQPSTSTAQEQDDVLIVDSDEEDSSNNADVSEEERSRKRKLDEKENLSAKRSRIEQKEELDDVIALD

Prothrombin = Prothrombin (Bos taurus, UniProt P00735); test: thrombin protease inhibitors – biochemical, fluorescence polarization, uHTS hits, dose response (AID 602369); assay type: functional
Bcl-2-related protein A1 = target: T2, Bcl-2-related protein A1 (Mus musculus, UniProt Q07440); assay type: functional;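 also: confirmatory dose–response counterscreen on Bfl-1, used to check hits from a UBC13 polyubiquitin inhibitor campaign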
T2 sequence (Q07440 whole entry): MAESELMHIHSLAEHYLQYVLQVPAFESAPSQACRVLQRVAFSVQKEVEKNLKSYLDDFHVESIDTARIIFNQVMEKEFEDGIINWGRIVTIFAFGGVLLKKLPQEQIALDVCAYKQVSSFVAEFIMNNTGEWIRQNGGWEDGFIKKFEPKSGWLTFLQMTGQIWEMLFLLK

[7] = target: T3, Ubiquitin-conjugating enzyme E2 N (Homo sapiens, UniProt P61088); assay type: functional
T3 sequence (P61088 whole entry): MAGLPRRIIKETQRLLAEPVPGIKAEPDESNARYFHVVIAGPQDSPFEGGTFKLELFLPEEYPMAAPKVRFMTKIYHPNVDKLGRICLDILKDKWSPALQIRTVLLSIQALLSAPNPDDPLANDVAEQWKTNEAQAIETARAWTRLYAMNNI

[8] = target: T3, Ubiquitin-conjugating enzyme E2 N; assay type: functional; remark: listed apart in the source
[9] = target: T4, Apoptotic protease-activating factor 1 (Homo sapiens, UniProt O14727); assay type: functional
T4 sequence (O14727 whole entry): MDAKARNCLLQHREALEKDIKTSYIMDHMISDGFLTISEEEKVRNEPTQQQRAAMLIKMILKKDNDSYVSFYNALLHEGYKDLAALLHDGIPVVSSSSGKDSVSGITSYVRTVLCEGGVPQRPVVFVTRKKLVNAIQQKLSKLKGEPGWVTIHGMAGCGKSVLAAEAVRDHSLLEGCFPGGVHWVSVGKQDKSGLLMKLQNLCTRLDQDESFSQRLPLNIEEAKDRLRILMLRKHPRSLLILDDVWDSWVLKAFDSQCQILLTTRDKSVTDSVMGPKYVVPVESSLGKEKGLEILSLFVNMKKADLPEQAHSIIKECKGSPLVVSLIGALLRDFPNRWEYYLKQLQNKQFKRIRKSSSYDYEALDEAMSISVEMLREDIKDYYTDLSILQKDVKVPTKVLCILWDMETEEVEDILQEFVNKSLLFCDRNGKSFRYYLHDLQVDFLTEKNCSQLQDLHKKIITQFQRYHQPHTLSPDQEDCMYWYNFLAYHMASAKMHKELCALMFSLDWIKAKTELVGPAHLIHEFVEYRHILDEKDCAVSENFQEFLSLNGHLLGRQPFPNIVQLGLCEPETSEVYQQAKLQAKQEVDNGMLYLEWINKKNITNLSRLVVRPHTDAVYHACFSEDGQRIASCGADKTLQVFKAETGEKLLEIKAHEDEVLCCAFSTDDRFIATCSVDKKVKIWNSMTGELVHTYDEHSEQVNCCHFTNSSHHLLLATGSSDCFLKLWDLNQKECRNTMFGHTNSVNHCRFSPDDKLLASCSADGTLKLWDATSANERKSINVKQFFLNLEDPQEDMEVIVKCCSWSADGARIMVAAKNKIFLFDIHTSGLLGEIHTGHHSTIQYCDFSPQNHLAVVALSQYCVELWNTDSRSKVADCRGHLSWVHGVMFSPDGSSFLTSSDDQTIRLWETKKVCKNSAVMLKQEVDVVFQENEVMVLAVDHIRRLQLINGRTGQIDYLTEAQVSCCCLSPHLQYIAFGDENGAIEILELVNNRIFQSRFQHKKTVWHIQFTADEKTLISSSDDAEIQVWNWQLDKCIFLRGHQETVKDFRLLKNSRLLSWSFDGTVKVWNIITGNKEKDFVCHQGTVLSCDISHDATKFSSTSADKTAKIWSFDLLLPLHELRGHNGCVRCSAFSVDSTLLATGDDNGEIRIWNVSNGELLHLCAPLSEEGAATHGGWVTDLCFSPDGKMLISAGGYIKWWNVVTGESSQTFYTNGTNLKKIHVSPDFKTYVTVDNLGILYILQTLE

[10] = HEK-293T cell viability reduction – luminescence, B-cell screen hits, cytotoxicity control for BCR NF-kB inhibitor project, dose response (AID 489021); assay type: functional, cell-based;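 also: HEK-293T cells carrying an NF-kB luciferase reporter; cells exposed to compound for about 14 hours before viability readout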
Melanocortin receptor 4 = Melanocortin receptor 4 (Homo sapiens, UniProt P32245); test: inhibitors of MC4R cAMP signaling – cell-based, TR-FRET, biased antagonists, dose response (AID 602298); assay type: functional;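 also: antagonist potency against agonist-stimulated cAMP production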
Melanocortin receptor 4, sequence (P32245 whole entry): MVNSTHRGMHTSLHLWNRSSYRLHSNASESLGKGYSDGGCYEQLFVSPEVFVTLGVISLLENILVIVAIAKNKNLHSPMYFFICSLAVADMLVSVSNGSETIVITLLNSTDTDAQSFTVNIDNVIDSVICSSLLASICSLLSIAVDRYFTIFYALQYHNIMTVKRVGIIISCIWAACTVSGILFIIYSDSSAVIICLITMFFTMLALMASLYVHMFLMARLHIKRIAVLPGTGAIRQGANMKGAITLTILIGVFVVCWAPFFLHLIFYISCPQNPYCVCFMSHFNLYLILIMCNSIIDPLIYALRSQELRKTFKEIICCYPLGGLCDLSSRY

[11] = cAMP pathway inhibition in counterscreen cell line – TR-FRET cAMP detection, counter-screen for MC4R biased antagonist project, dose response (AID 602305); assay type: functional, cell-based;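 also: U2OS cells stimulated with forskolin near its EC80 as the cAMP inducer; potency is for inhibition of forskolin-stimulated cAMP signaling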
[12] = target: Neurotensin receptor type 1 (Homo sapiens, UniProt P30989); assay type: functional;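 also: Image-based confirmatory dose-response assay measuring agonist activity at NTR1; NTR1-expressing U2OS osteosarcoma cells imaged for beta-arrestin GFP spot formation; agonist potency where compounds increase beta-arrestin recruitment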
Neurotensin receptor type 1, sequence (P30989 whole entry): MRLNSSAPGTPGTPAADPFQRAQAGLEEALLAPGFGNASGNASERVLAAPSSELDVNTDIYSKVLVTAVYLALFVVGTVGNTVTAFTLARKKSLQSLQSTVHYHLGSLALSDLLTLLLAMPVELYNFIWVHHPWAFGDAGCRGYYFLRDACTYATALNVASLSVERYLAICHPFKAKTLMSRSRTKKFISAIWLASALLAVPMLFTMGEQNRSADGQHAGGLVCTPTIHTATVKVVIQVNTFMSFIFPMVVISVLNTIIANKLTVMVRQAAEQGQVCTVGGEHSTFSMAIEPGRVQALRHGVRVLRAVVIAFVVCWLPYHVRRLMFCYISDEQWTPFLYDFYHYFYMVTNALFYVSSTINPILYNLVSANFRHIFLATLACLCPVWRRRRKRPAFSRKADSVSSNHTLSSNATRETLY

[13] = Luminescence Cell-Based Dose Retest to Confirm Inhibitors of Cancer Stem Cells. [Related pubchem assays (depositor defined):AID2717, AID2721]; assay type: functional; conditions: Homo sapiens
HEK293 [14] = test: EBV LMP1 TES2 canonical NF-kB signalling blockers – cell-based, HEK293, luciferase, cherry-pick, dose response (AID 588343); assay type: functional; conditions: Homo sapiens
INS1 = test: INS-1E survival protection against cytokine death – cell-based, luminescence, retest, dose response (AID 449756); assay type: functional; conditions: Rattus norvegicus;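 also: cell death triggered by IL-1 beta plus TNF-alpha plus IFN-gamma mixture; protective hits raise ATP signal compared with cytokine alone wells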

In the case of `O=C(NCCSc1ccc(Br)cc1)c1ccc2[nH]cnc2c1`, the IC50 (HEK293 [1]) is reported as > 89.3 µM (inactive), the EC50 (Insulin-degrading enzyme [2]) is reported as > 54.7 µM (inactive) and the EC50 (Insulin-degrading enzyme [3]) is reported as > 54.7 µM (inactive). For the same compound, the EC50 (HEK293 [4]) was > 56 µM (inactive).
In the case of `Sc1nnc(-c2cc(-c3ccccc3)[nH]n2)n1/N=C/c1ccc(Cl)c(Cl)c1`, the IC50 [5] is reported as > 100 µM (inactive), the IC50 [6] is reported as 8.54 µM (active) and the IC50 (SUMO-activating enzyme) is reported as 49.8 µM (active). The IC50 (Prothrombin) was > 100 µM (inactive).
With `C#CCOCCOCCOCCNc1nc(N2CCN(C(=O)CCCCCCCCCCNC(=O)Cn3cc(CCCCCN)nn3)CC2)nc(N2CCN(C(=O)CCCCCCCCCCNC(=O)[C@@H]([C@H](C)O)n3cc(C)nn3)CC2)n1` the IC50 (HEK293 [1]) was 17.8 µM (inactive), the EC50 (Insulin-degrading enzyme [2]) was > 54.7 µM (inactive) and the IC50 (Bcl-2-related protein A1) was > 20 µM (inactive). For the same compound, the IC50 [7] was 10.7 µM (active), the IC50 [8] was 6.62 µM (active) and the IC50 [9] was 36.7 µM (active). The EC50 (Insulin-degrading enzyme [3]) was > 6.07 µM (active) and the EC50 (HEK293 [4]) was > 54.7 µM (inactive).
In the case of `CNC(=O)c1cc(Oc2ccc(NC(=O)Nc3ccc(Cl)c(C(F)(F)F)c3)cc2)ccn1` [SORAFENIB TOSYLATE], the IC50 [10] is reported as 70.6 µM (inactive), the IC50 (Melanocortin receptor 4) is reported as 4.48 µM (active) and the IC50 [11] is reported as > 64.6 µM (inactive). For the same compound, the EC50 [12] was 14.6 µM (active), the AC50 [13] was 2.04 µM (active) and the AC50 (HEK293 [14]) was 1.6 µM (active). The AC50 (INS1) was 6.78 µM (active).
